Laboratory results published in PubChem BioAssay (NCI).
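Grown in 96-well plates, cells were treated for 48 hours with each compound at five concentrations. Insufficient inhibition: endpoint recorded as highest concentration tested. GI50 marks 50% less growth. TGI marks complete inhibition of growth.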 Where a SMILES comes first, the peptide text is derived from it. [ ]: non-standard residue; d: D form. The star is where a group is joined. ξ: configuration not given here. ξF = NC(Cc1ccccc1)C(=O)O; Cbz = O=C(OCc1ccccc1)*; Aib = CC(C)(N)C(=O)O

Key:
Assay in all cases: NCI tumour cell line growth inhibition, 48 h
MCF7 breast = system: MCF7 breast
MDA-N = system: MDA-N
SNB-75 CNS = system: SNB-75 CNS
SF-539 CNS = system: SF-539 CNS
786-0 renal = system: 786-0 renal
A498 renal = system: A498 renal
T-47D breast = system: T-47D breast
HS 578T breast = system: HS 578T breast
DMS 114 small cell lung = system: DMS 114 small cell lung
M19-MEL melanoma = system: M19-MEL melanoma
LOX IMVI melanoma = system: LOX IMVI melanoma

Row | Compound | TGI (MCF7 breast) | TGI (MDA-N) | TGI (SNB-75 CNS) | TGI (SF-539 CNS) | TGI (786-0 renal) | TGI (A498 renal) | GI50 (SNB-75 CNS) | GI50 (SF-539 CNS) | GI50 (A498 renal) | TGI (T-47D breast) | TGI (HS 578T breast) | TGI (DMS 114 small cell lung) | TGI (M19-MEL melanoma) | TGI (LOX IMVI melanoma) | GI50 (T-47D breast) | GI50 (MCF7 breast) | GI50 (HS 578T breast) | GI50 (LOX IMVI melanoma) | GI50 (DMS 114 small cell lung) | GI50 (M19-MEL melanoma)
1 | Nc1nc2ccc(OCC(O)CN3CCCCC3)cc2[n+]([O-])n1 (configuration not stated) | > 100 µM | > 100 µM | > 100 µM | > 100 µM | > 100 µM | > 100 µM | – | – | – | – | – | – | – | – | – | – | – | – | – | –
2 | N=C(N)c1ccc(-c2ccc(-c3cccs3)s2)s1 | – | – | 3.41 µM | 2.96 µM | – | 0.846 µM | 1.77 µM | 1.58 µM | 0.279 µM | – | – | – | – | – | – | – | – | – | – | –
3 | CCOC(=O)CCC(NC(=O)OCc1ccccc1)C(=O)NC(CCC(=O)OCC)C(=O)NNC(=O)OC(C)(C)C (configuration not stated) | > 100 µM | > 100 µM | > 100 µM | – | – | – | – | – | – | > 100 µM | > 100 µM | – | – | – | – | – | – | – | – | –
4 | c1cncc(O[Si](Oc2cccnc2)(Oc2cccnc2)Oc2cccnc2)c1 | – | – | > 100 µM | > 100 µM | – | – | – | – | – | – | – | > 100 µM | > 100 µM | > 100 µM | – | – | – | – | – | –
5 | Nc1c(-c2ccccc2[N+](=O)[O-])nc2ccccn12 | – | – | – | – | – | – | – | – | – | – | – | > 100 µM | > 100 µM | > 100 µM | – | – | – | – | – | –
6 | COc1cc(Nc2nnc3n2S(=O)(=O)c2cc(C)c(Cl)cc2S3)cc(OC)c1 | > 100 µM | > 100 µM | – | 6.31 µM | 20.5 µM | 85.8 µM | – | – | – | 44.5 µM | 66.9 µM | – | – | – | – | – | – | – | – | –
7 | Cc1ccc(N2CCN(CCC(=O)O)CC2)cc1 | > 100 µM | – | > 100 µM | > 100 µM | > 100 µM | > 100 µM | – | – | – | > 100 µM | > 100 µM | – | – | > 100 µM | – | – | – | – | – | –
8 | NCCSCc1ccccc1Cl | – | > 100 µM | > 100 µM | – | > 100 µM | 96.2 µM | – | – | – | > 100 µM | > 100 µM | – | – | 66.1 µM | – | – | – | – | – | –
9 | CCOc1ccc(N=NS(=O)(=O)O)cc1 | > 100 µM | > 100 µM | > 100 µM | > 100 µM | > 100 µM | > 100 µM | – | – | – | > 100 µM | > 100 µM | – | – | > 100 µM | – | – | – | – | – | –
10 | CC(=O)ON1C(=O)c2cccc3cccc(c23)C1=O | > 100 µM | 93.3 µM | – | 48.3 µM | – | 71.5 µM | – | – | – | 63.8 µM | 79.3 µM | – | – | 57.3 µM | – | – | – | – | – | –
11 | COC(=O)C(C)(C)NC(=O)C(Cc1ccccc1)NC(=O)C(C)(C)NC(=O)OCc1ccccc1 (configuration not stated) (Cbz-[Aib]-[ξF]-[Aib]-OMe) | > 100 µM | > 100 µM | – | – | – | > 100 µM | – | – | – | > 100 µM | – | – | – | > 100 µM | – | – | – | – | – | –
12 | C(=N\OCCc1ccccc1)/c1cccnc1 | > 100 µM | > 100 µM | > 100 µM | > 100 µM | > 100 µM | – | – | – | – | > 100 µM | > 100 µM | – | – | – | – | – | – | – | – | –
13 | COc1cc(-c2n/c(=C\c3c(O)[nH]c4cc(Cl)ccc34)cc3c2=Nc2ccccc2-3)cc(OC)c1OC | 13.6 µM | – | 25.1 µM | 30.8 µM | – | 27.9 µM | 5.05 µM | 11.2 µM | 7.12 µM | 18.5 µM | 19 µM | – | – | 16 µM | 4.19 µM | 2.71 µM | 2.51 µM | 2.76 µM | – | –
14 | Clc1ccc(-c2ccc(-c3nnc(COc4ccc(OCc5nnc(-c6ccc(-c7ccc(Cl)cc7Cl)o6)o5)c(Cl)c4)o3)o2)c(Cl)c1 | > 100 µM | > 100 µM | – | – | > 100 µM | > 100 µM | – | – | – | > 100 µM | > 100 µM | – | – | > 100 µM | – | – | – | – | – | –
15 | C[CH2][Ge]([CH2]C)([CH2]C)[O]C(=O)CCC(=O)[O][Ge]([CH2]C)([CH2]C)[CH2]C | – | – | – | > 100 µM | – | – | – | > 100 µM | – | – | – | > 100 µM | > 100 µM | > 100 µM | – | – | – | 58 µM | 38.9 µM | > 100 µM
16 | NC(=O)/C=c1/c2ccccc2n2nc3ccccc3c12 | > 100 µM | 35.6 µM | – | 31.9 µM | 77.4 µM | 79.4 µM | – | – | – | > 100 µM | 87.6 µM | – | – | 19.7 µM | – | – | – | – | – | –
